Assay results published in ChEMBL document CHEMBL1201862, “PubChem BioAssay data set” (2004).
Calls of active or inactive are those of the source.

Experiments:
[1] = target: DNA dC->dU-editing enzyme APOBEC-3G (Homo sapiens, UniProt Q9HC16); test: APOBEC3G deaminase inhibitors, SAR follow-up, biochemical, fluorescence, single-stranded DNA substrate (AID 602136); format: functional; details: read-out: IC50_Mean
[2] = target: DNA dC->dU-editing enzyme APOBEC-3A (Homo sapiens, UniProt P31941); test: SAR analysis of small molecule inhibitors of APOBEC3A DNA Deaminase via a fluorescence-based single-stranded DNA deaminase assay.; format: functional; details: read-out: IC50_Mean
Chain of DNA dC->dU-editing enzyme APOBEC-3A (P31941 whole entry): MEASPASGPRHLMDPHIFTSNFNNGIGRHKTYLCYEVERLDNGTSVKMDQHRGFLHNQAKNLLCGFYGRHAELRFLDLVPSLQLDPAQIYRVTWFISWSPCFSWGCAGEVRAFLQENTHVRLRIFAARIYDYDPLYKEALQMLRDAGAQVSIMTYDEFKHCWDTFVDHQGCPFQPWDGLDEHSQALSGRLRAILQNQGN

[3] = target: Serine/threonine-protein kinase Chk1 (Homo sapiens, UniProt O14757); format: functional;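 note: measured as one member of a kinome-wide kinase profiling panel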
Chain of Serine/threonine-protein kinase Chk1 (O14757 whole entry): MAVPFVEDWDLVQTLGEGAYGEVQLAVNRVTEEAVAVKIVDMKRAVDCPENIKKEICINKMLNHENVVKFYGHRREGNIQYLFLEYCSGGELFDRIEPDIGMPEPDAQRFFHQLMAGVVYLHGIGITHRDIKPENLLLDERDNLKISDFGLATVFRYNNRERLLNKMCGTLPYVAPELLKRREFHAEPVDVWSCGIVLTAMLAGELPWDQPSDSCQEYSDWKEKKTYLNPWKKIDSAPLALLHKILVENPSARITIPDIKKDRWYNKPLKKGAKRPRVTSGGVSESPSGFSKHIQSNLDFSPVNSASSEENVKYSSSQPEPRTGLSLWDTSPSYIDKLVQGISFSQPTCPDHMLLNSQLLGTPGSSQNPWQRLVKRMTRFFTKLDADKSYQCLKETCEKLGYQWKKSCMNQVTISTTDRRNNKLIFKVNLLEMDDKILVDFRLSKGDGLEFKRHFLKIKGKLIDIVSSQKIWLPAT

[4] = target: Dual specificity mitogen-activated protein kinase kinase 1 (Homo sapiens, UniProt Q02750); test: Navigating the Kinome. Panel member name: MAP2K1; format: functional
Chain of Dual specificity mitogen-activated protein kinase kinase 1 (Q02750 whole entry): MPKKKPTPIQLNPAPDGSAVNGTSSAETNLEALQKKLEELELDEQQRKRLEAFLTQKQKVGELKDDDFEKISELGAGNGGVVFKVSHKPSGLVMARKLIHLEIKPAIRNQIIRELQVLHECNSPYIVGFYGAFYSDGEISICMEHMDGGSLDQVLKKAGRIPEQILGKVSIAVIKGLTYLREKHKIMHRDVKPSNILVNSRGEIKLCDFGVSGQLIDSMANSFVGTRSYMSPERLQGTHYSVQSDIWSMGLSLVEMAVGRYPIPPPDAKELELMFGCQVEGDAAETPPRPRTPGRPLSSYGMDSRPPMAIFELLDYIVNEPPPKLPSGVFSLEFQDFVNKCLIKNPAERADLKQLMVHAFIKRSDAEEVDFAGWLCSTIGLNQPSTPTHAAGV

[5] = system: HEK293; test: optical interference in Abeta FP readout, dose response, artefact control for IDE activator project, biochemical, fluorescence polarization (AID 588442); format: functional, cell-based; details: Homo sapiens
[6] = system: HEK293; test: HEK cell cytotoxicity by LDH release, dose response, cytotoxicity control for IDE activator project, fluorescence, HEK cells (AID 588440); format: functional, cell-based; details: Homo sapiens;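 note: cytotoxicity by LDH release measuring loss of membrane integrity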
[7] = target: T1, Insulin-degrading enzyme (Homo sapiens, UniProt P14735); test: activators of endogenous IDE in HEK cells, dose response, cell-based, fluorescence polarization (AID 588439); format: functional
T1 sequence (P14735 whole entry): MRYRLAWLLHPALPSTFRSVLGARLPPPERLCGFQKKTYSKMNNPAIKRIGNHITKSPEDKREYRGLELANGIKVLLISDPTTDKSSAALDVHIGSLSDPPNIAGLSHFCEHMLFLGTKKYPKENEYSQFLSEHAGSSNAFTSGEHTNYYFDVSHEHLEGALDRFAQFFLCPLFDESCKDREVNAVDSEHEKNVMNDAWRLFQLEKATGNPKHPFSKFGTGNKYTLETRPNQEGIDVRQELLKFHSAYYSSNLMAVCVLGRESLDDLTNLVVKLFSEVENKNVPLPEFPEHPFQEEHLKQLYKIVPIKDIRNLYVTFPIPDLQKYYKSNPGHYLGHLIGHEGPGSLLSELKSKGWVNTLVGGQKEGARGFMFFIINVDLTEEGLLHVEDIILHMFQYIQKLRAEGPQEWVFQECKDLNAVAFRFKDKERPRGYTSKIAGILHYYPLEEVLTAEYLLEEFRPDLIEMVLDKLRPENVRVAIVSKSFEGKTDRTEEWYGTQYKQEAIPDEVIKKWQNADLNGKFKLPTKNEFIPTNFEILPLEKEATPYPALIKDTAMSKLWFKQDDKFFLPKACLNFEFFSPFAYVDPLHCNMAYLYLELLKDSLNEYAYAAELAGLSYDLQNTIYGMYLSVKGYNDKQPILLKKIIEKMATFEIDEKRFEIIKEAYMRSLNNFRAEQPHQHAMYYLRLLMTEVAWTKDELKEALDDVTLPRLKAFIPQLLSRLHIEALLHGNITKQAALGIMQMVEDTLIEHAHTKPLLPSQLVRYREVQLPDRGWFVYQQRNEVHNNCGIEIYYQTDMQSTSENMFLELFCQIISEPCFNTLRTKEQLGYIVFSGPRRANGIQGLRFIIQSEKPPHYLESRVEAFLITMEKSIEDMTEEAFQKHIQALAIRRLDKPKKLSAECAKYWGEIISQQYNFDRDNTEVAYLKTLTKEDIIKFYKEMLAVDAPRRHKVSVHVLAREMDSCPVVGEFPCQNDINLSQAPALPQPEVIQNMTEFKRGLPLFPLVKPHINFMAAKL

[8] = target: T1, Insulin-degrading enzyme; test: activators of recombinant IDE enzyme, dose response, counter-screen for IDE activator project, biochemical, fluorescence polarization (AID 588681)
[9] = SAR analysis of small molecule inhibitors of Apaf-1 using a LZ-Caspase-9/Caspase-3 Fluorescent Selectivity assay - Set 2.; format: functional; details: read-out: IC50_Mean
[10] = target: T2, Apoptotic protease-activating factor 1 (Homo sapiens, UniProt O14727); test: SAR analysis of small molecule Inhibitors of Apaf-1 in a Fluorescent assay - set 2.; format: functional; details: read-out: IC50_Mean
T2 sequence (O14727 whole entry): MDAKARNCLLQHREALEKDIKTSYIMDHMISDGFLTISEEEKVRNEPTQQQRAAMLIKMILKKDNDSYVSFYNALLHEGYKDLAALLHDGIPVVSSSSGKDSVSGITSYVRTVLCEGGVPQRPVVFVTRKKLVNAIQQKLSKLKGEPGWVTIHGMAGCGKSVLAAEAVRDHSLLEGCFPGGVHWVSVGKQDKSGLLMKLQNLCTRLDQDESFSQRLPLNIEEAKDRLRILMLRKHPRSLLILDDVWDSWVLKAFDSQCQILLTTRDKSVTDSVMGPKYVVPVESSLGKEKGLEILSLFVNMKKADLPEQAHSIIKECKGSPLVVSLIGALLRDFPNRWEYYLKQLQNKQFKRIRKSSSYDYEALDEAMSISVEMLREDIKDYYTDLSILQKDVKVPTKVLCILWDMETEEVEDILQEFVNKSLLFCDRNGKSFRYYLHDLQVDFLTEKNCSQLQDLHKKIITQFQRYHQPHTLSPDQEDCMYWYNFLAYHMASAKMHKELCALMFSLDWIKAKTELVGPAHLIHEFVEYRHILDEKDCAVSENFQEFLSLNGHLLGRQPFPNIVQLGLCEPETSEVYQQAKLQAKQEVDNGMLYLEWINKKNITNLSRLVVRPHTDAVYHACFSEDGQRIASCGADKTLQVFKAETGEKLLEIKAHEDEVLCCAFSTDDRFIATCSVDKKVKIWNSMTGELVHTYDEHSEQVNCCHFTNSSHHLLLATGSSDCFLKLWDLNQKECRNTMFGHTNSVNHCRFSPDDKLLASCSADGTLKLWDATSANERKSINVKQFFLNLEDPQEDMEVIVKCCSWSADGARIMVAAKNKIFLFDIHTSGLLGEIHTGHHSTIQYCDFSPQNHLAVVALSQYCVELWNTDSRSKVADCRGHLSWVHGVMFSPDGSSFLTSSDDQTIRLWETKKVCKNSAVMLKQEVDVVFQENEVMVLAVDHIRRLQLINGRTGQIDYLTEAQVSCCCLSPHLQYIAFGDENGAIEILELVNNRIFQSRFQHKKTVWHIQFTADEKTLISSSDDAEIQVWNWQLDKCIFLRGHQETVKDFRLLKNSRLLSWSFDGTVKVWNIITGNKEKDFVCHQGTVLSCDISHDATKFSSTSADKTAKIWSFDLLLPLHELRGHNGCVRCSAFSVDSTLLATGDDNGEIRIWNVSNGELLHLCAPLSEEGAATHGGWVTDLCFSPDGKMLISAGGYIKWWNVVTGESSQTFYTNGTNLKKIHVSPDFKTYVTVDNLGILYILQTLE

[11] = THP-1 cell cytotoxicity, dose response, cytotoxicity control, set 3 (AID 504852); format: functional; details: Mycobacterium tuberculosis
[12] = Vero cell cytotoxicity, cytotoxicity control for M. tuberculosis inhibitor project, purified and synthesized samples, set 3 (AID 504684); format: functional

Chain of DNA dC->dU-editing enzyme APOBEC-3G (Q9HC16 whole entry): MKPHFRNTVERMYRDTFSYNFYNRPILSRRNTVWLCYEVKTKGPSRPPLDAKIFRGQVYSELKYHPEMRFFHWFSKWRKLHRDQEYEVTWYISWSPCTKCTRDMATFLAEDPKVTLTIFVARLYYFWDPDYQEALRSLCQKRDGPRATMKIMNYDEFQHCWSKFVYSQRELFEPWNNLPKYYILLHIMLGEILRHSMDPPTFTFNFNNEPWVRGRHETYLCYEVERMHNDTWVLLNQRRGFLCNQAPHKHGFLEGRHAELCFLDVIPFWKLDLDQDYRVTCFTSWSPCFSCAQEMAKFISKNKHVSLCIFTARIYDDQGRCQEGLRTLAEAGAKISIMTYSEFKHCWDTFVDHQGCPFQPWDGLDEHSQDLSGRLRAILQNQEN

Q: With `CN1CC2=C(N=C1NCCCO)c1ccccc1CC21CCCCC1` as the compound, how does the IC50 [1] read?
A: > 99 µM (inactive)

Q: What about the IC50 [2] of the same compound?
A: > 99 µM (inactive)

Q: Which results are given for `CN(C)Cc1ccc2c(c1)NC(=O)C1CCCN21` (configuration not stated)?
A: Ki [3]: 1.58 µM (active); Ki [4]: 3.16 µM (active)

Q: For `O=C(O)c1ccccc1NC(=O)C1CCN(S(=O)(=O)c2cccc3nsnc23)CC1`, which EC50 [5] is on record?
A: 2.44 µM (active)

Q: What about the IC50 [6] of the same compound?
A: > 89.2 µM (inactive)

Q: What about the EC50 [7] of the same compound?
A: > 18.2 µM (inactive)

Q: And the EC50 [8]?
A: > 54.7 µM (inactive)

Q: For `Cc1cc(C)c2c(c1)N(Cc1ccc(Cl)c(Cl)c1)C(=O)C2=O`, which IC50 [9] is on record?
A: 20.1 µM (active)

Q: What about the IC50 [10] of the same compound?
A: 42 µM (active)

Q: Which CC50 [11] does the source give for `COC(=O)c1ccc(CNc2c(N3CCCC3)c(=O)c2=O)cc1` here?
A: > 100 µM (active)

Q: And the CC50 [12]?
A: > 100 µM (active)
